{
  "source": "patent US20210061929A1",
  "about": "“ACTIVE-ENERGY-RAY-CURABLE COMPOSITION, ACTIVE-ENERGY-RAY-CURABLE INK, COMPOSITION STORED CONTAINER, TWO-DIMENSIONAL OR THREE-DIMENSIONAL IMAGE FORMING METHOD AND APPARATUS, CURED PRODUCT, AND DECORATED PRODUCT” (priority 2019, published 2021)",
  "key": {"[1]": {"test": "Skin sensitization test by local lymph node assay (LLNA), SI value of the materials", "type": "in vivo", "conditions": "for SI (skin sensitization SI value): material as such, local lymph node assay (LLNA) method", "experimental": "The amine value of the dispersant polymer, a skin sensitization SI value indicating a skin sensitizing potential, and the colony count by Ames test indicating carcinogenicity were obtained in the manners described below.\nThe SI value was measured by a skin sensitization test according to a local lymph node assay (LLNA) method.\nOral toxicity was tested according to OECD test guideline TG423. […] Skin sensitizing potential was tested according to OECD test guideline TG442B."}, "[2]": {"type": "cell-based", "conditions": "OECD test guideline TG471 (±S9 mix)", "experimental": "(§1) As a safety test, AMES test was performed according to OECD test guideline TG471 (±S9 mix), and the result was negative. Oral toxicity was tested according to OECD test guideline TG423. […] Skin stimulation was tested according to OECD test guideline TG404, and the result was PII=0.5. Skin sensitizing potential was tested according to OECD test guideline TG442B."}, "[3]": {"test": "Oral toxicity according to OECD test guideline TG423", "type": "in vivo", "experimental": "as §1"}, "[4]": {"type": "in vivo", "conditions": "OECD test guideline TG404", "experimental": "as §1"}},
  "data": [
    {"compound": "C=CC(=O)N(C)C(C)C(=O)OC", "note": "(stereo not shown) [Example A1-3, N-acryloyl-N-methylalaninemethyl ester]", "values": [
      {"measurement": "SI (skin sensitization SI value)", "setting": "[1]", "value": "(see Synthesis example 3) SI = 1.12"}
    ]},
    {"compound": "C=CC(=O)OCC(CC)(COC(=O)C=C)COC(=O)C=C", "note": "[Example A4-1]", "values": [
      {"measurement": "SI (skin sensitization SI value)", "setting": "[1]", "value": "Toagosei Co., Ltd. “M-3547” SI = 3.42"}
    ]},
    {"compound": "C=C(C)C(=O)OCC(CC)(COC(=O)C(=C)C)COC(=O)C(=C)C", "note": "[Example A2-3]", "values": [
      {"measurement": "SI (skin sensitization SI value)", "setting": "[1]", "value": "Shin- Nakamura Chemical Co., Ltd. “TMPT” SI = 1.03"}
    ]},
    {"compound": "C=C(C)C(=O)OCC(COC(=O)C(=C)C)OC(C)=O", "note": "[Example A2-6, 2-acetyl-1,3-glycerol dimethacrylate]", "values": [
      {"measurement": "SI (skin sensitization SI value)", "setting": "[1]", "value": "(see Synthesis example 5) SI = 1.40"}
    ]},
    {"compound": "C=C(C)C(=O)OCCO", "note": "[Example A3-1, 2-hydroxyethyl methacrylate]", "values": [
      {"measurement": "SI (skin sensitization SI value)", "setting": "[1]", "value": "Tokyo Chemical Industry Co., Ltd. “2-hydroxyethyl methacrylate” SI = 1.26"}
    ]},
    {"compound": "C=CC(=O)N(C)CC(=O)OCC", "note": "[Example A1-2, N-acryloyl-N-methylglycineethyl ester]", "values": [
      {"measurement": "SI (skin sensitization SI value)", "setting": "[1]", "value": "(see Synthesis example 2) SI = 1.02"}
    ]},
    {"compound": "C=CC(=O)N(C)CC(=O)OC", "note": "[Example A1-1, N-acryloyl-N-methylglycinemethyl ester]", "values": [
      {"measurement": "SI value (skin sensitizing potential)", "setting": "[1]; OECD test guideline TG442B", "value": 1.00},
      {"measurement": "Influence on the health of human bodies (conclusion of the safety tests)", "setting": "[1]; in vivo, po", "value": "significantly uninfluential on the health of human bodies"},
      {"measurement": "SI (skin sensitization SI value)", "setting": "[1]", "value": "(see Synthesis example 1) SI = 1.00"},
      {"measurement": "AMES test result", "setting": "[2]", "value": "negative"},
      {"measurement": "LD50", "setting": "[3]; in vivo, po, 2000 mg/kg", "value": "≥ 2000", "unit": "mg/kg"},
      {"measurement": "Fatal cases (oral toxicity)", "setting": "[3]; six cases", "value": "none of six cases was a fatal case"},
      {"measurement": "PII (skin stimulation)", "setting": "[4]", "value": 0.5}
    ]},
    {"compound": "Isobornyl acrylate [Example A3-2]", "values": [
      {"measurement": "SI (skin sensitization SI value)", "setting": "[1]", "value": "Osaka Organic Chemical Industry Ltd. “Isobomyl acrylate” SI = 8.30"},
      {"measurement": "SI (skin sensitization SI value)", "setting": "[1]; listed as IBXA", "value": 8.30}
    ]},
    {"compound": "C=C(C)C(=O)OCCOCCOC(=O)C(=C)C", "note": "[Example A2-1]", "values": [
      {"measurement": "SI (skin sensitization SI value)", "setting": "[1]", "value": "Shin- Nakamura Chemical Co., Ltd. “2G” SI = 1.05 Ltd."}
    ]}
  ]
}
